Data published in patent US20170095440A1, “METHOD OF TREATING CANINE PANCREATITIS” (CK9, LLC, priority 2014, published 2017).
Entries after “also recorded” stand apart in the source; their conditions may differ.

Columns and labels:
[1] = tested on: dogs with suspected chronic pancreatitis; experiment: Serum TGF-β1 before and after treatment, clinical trial; type: in vivo, dog; settings: for Change in serum TGF-β1, pre- vs post-treatment (paired t-test): methanesulfonate
Description: (§1) Treatment effects on overall health status, quality of life, and clinical signs were also evaluated with serum biochemistry profiles, complete blood counts, and owner questionnaires.
Dogs were identified by screening current submissions to the Gastrointestinal Laboratory at Texas A&M indicative of pancreatitis (canine pancreas-specific lipase≧400 μg/L) using an immunoassay for measurement of canine pancreas-specific lipase in canine serum known as the spec CPL® Test (IDEXX, Laboratories). A number of potential study participants were directly referred to the investigator by veterinarians, based on positive pet-side SNAP cPL® Test (IDEXX Laboratories, Westbrook, Me., USA) results and concomitant clinical signs. After ascertaining individual suitability of a patient with the referring veterinarian, serum canine pancreas-specific lipase concentration, serum biochemistry profile, and complete blood count were evaluated or re-evaluated 12±4 days after collection of the initial sample submission to the Gastrointestinal Laboratory. Based on the assumption that consecutive canine pancreas-specific lipase elevations indicate chronic pancreatitis, enrollment was offered for patients with canine pancreas-specific lipase concentrations≧400 μg/L, serum triglyceride concentrations below 500 mg/dL, and no indication of hepatic, renal, or other organ disease. […] Owner consent was required prior to phlebotomy and for enrollment into the trial.
Twelve enrolled dogs received camostat capsules at a dosage of 4 mg/kg q 8 hrs, for a total dose of 12 mg/kg q 24 hrs. […] Individual patients were medicated for between 21 to 31 days.
Blood samples were collected before beginning the treatment and after completion of the treatment period. Complete blood count (red blood cell count, hematocrit, mean corpuscular volume, mean corpuscular hemoglobin, mean corpuscular hemoglobin concentration, differential and absolute white blood cell count, red blood cell count, hemoglobin, platelet estimate, red blood cell morphology, white blood cell morphology, and hemoparasites) was evaluated at the Texas Veterinary Medical Diagnostic Laboratory (TVMDL). A serum chemistry profile with electrolytes (glucose, blood urea nitrogen, creatinine, calcium, phosphorus, albumin, total protein, total bilirubin, alkaline phosphatase, alanine amino transferase, aspartate amino transferase, γ-glutamyl transferase, cholesterol, triglycerides, globuline, sodium, potassium, and chloride) was performed on a SIRRUS analyzer (Stanbio, Boerne, Tex., USA). Serum concentrations of cPL (RI: 0-200 μg/L; Spec cPL® IDEXX Laboratories, Westbrook, Me., USA), cTLI (RI: 5.7-45.2 μg/L; Canine TLI DOUBLE ANTIBODY®, Siemens Healthcare Diagnostics, Los Angeles, Calif., USA), cobalamin (RI: 251-908 ng/L), and folate (RI: 7.7-24.4 μg/L; Immulite 2000®, Siemens Healthcare Diagnostics Inc., Deerfield, Ill., USA), canine specific C-reactive protein (RI: 0-7.6 mg/L, Tridelta Development Limited, Maynooth, CO. Kildare, Ireland), S100A12 (RI: 56-331 μg/L, Gastrointestinal Laboratory in-house radioimmunoassay), and TGF-β1 (RI: 38-72 ng/mL; Quantikine® ELISA, R&D Systems, Minneapolis, […]., USA) were performed at the Gastrointestinal Lab at Texas A&M University.
Pre-treatment and post-treatment results for all diagnostic tests were statistically analyzed using Prism 6 (GraphPad Software, La Jolla, Calif., USA). The D'Agostino-Pearson omnibus test was used to evaluate all datasets for Gaussian distribution. Groups were compared using a paired t-test for normally-distributed data sets and a Wilcoxon matched-pairs test when Gaussian distribution could not be assumed. Mean values and standard deviation are reported for data sets with Gaussian distribution. Median and minimum/maximum values are reported for data sets where Gaussian distribution could not be assumed. The significance threshold was set at p=0.05.

[2] = tested on: dogs with suspected chronic pancreatitis; experiment: Quality of life reported by owners and referring vets, clinical trial; type: in vivo, dog
Description: as §1
Patients were treated at home and their overall health was monitored by their owners and the referring physician.
Owners of enrolled dogs received instructions to refrain from changing the dog's diet during the trial period and to report on the overall health status and quality of life of their pet.

[3] = tested on: dogs; settings: 10, 30 and 100 mg/kg/day, oral capsules, 30-day study; cited from earlier work
[4] = tested on: dogs with suspected chronic pancreatitis; experiment: Serum S100A12 before and after treatment, clinical trial; type: in vivo, dog; settings: 8 mg/kg q 8 hrs, n=17
[5] = tested on: Han Wistar rats; experiment: Rising-dose tolerance study, single oral gavage; type: in vivo, rat
Description: The following parameters and end points were evaluated in the rising-dose phase of this study: clinical signs, body weights, body weight changes, food consumption, and gross necropsy findings.
A total of 18 male and 24 female Han Wistar rats were received from Charles River Laboratories, Raleigh, N.C. The animals were examined and weighed on the day following receipt. The rising-dose phase animals were 8 weeks old and weighed between 176 g and 255 g at initiation of dosing and the multiple-dose phase animals were 8 weeks old and weighed between 172 g and 259 g at initiation of dosing.
For the rising-dose study, the test article was administered to the appropriate animals as a single dose by oral gavage. At least a 3-day observation period was maintained before proceeding to the next dose level/group. The dose volume for each animal was based on the most recent body weight measurement. The doses were given using a syringe with attached gavage cannula. The first day of dosing for each group was designated as Study Day 1.
The animals were removed from the cage and a detailed clinical observation was performed on the day of randomization and Days 1 to 8; 1 to 3 hours postdose on the day of dosing. Each animal was weighed on the day of randomization and Days 1 to 8. Food consumption was quantitatively measured for each animal weekly, starting Day −3, throughout the study.
Rising-dose study animals were subjected to a complete necropsy examination, which included evaluation of the carcass and musculoskeletal system; all external surfaces and orifices; cranial cavity and external surfaces of the brain; and thoracic, abdominal, and pelvic cavities with their associated organs and tissues. Necropsy examinations were conducted under the supervision of a board-certified veterinary pathologist.

[6] = 100, 550 or 1300 mg/kg single dose

## CN(C)C(=O)COC(=O)Cc1ccc(OC(=O)c2ccc(NC(=N)N)cc2)cc1 [Camostat Mesilate, N,N-dimethylcarbamoylmethyl-4-(4-guanidinobenzoyloxy)phenylacetate methanesulfonate]
[1]; 4 mg/kg q 8 hrs, n=12
  Change in serum TGF-β1, pre- vs post-treatment (paired t-test): no significant difference; also recorded: did not change significantly
[1]; 4 mg/kg q 8 hrs, n=12, pre-treatment mean 45, post SD ±8, p=0.3679
  Serum TGF-β1 concentration post-treatment (mean): 43 ng/mL
[1]; 8 mg/kg q 8 hrs, n=17
  Change in serum TGF-β1, pre- vs post-treatment (paired t-test): no significant difference; also recorded: did not change significantly
[1]; 8 mg/kg q 8 hrs, n=17, pre-treatment mean 47, post SD ±12, p=0.1686
  Serum TGF-β1 concentration post-treatment (mean): 40 ng/mL
[1]; all treated dogs combined, n=29, pre-treatment mean 46, post SD ±11, p=0.0986
  Serum TGF-β1 concentration post-treatment (mean): 41 ng/mL
[1]; all treated dogs combined, n=29, trend towards a decrease
  Change in serum TGF-β1, pre- vs post-treatment (paired t-test): no statistically significant difference; also recorded: did not lead to any significant changes
[2]; 24 mg/kg q d orally
  Quality of life, reports from referring vets and pet owners: subjective improvement of quality of life in some patients
[2]; all treated dogs
  Quality of life, overall consensus from pet owners: had improved
[3]
  Toxicity findings: no significant toxicities
[4]; methanesulfonate
  Change in serum S100A12, pre- vs post-treatment: no significant difference; also recorded: did not change significantly
[4]; pre-treatment median 147, post range 58-746, p=0.8176
  Serum S100A12 concentration post-treatment (median): 148 µg/L
[5]; 550 mg/kg single dose
  Clinical observation not considered test article related: hair loss was observed in 1 animal
[5]; 1300 mg/kg single dose, male
  Necropsy observation not considered test article related: Dark discoloration of the thymus was observed in one 1300 mg/kg male
[5]; 1300 mg/kg single dose, possible aspiration during dosing
  Clinical observation not considered a direct test article effect: piloerection and abnormal breathing sounds were observed in 1 animal on Day 2
[5]; [6]
  Body weight Days 1 to 8: All animals gained weight
  Food consumption: no significant changes in food consumption
  Gross necropsy findings: no significant gross necropsy findings
  Test article-related clinical observations: no test article-related clinical observations
[5]; single oral gavage 100, 550 or 1300 mg/kg, euthanasia Day 8, methanesulfonate
  Survival: All animals survived to scheduled euthanasia; also recorded: No animals died
